Data on 3 compounds can be found in US7642085B2, “Protein arrays” (priority 2002, dated 2010).

What is called IC50 is the point on the concentration scale where inhibition reaches its midpoint.

Data set [1] concerns mutant Z domain protein expressed by mutRNACUA^Tyr/LW1RS. Put plainly: fidelity of unnatural amino acid incorporation into Z domain (Lys7TAG), by FT-ICR MS. Set-up: species or system E. coli. The following applies: from a signal-to-noise ratio of more than 1500 in the intact protein mass spectrum.
Text: Plasmid pLEIZ was used to express the Z-domain gene with an amber codon at the 7th position and a COOH-terminal His6 tag under the control of a bacteriophage T5 promoter and t0 terminator, and the mutRNACUA^Tyr gene under the control of the lpp promoter and rrnC terminator. The mutant synthetase gene isolated from clone LW1 (LW1RS) was encoded in plasmid pBK-LW1RS under the control of the constitutive E. coli GlnRS promoter and terminator. E. coli DH10B cells cotransformed with pLEIZ and pBK-LW1RS were grown in minimal media containing 1% glycerol and 0.3 mM leucine (GMML media) with 25 μg/mL kanamycin, 34 μg/mL of chloramphenicol, and 1.0 mM p-acetyl-(±)-phenylalanine. When cells reach an OD600 of 0.5, isopropyl-β-D-thiogalactopyranoside (IPTG) (1 mM) was added to induce polypeptide expression. […] The yield of polypeptide was measured by Bradford assay (BCA kit, Biorad, Hercules, Calif.). […]
To test the ability of the evolved synthetase and the mutRNACUA^Tyr to selectively incorporate p-acetyl-L-phenylalanine into polypeptides, an amber stop codon was substituted at a permissive site (Lys7) in the gene for the Z domain of staphylococcal protein A (32) with a COOH-terminal His6 tag. Z domain has a molecular weight of about 7.9 kD, so its mass can be measured with very high accuracy using ion cyclotron resonance mass spectrometry. […]
In data set [2] the test system is E. coli cells expressing mutant TyrRS and mutRNACUA^Tyr. Put plainly: in vivo CAT assay: chloramphenicol resistance of cells expressing selected mutant TyrRS and mutRNACUA^Tyr (Asp112TAG CAT gene). The following applies: for IC50: Escherichia coli, read-out: IC50 value of chloramphenicol, eleven mutant TyrRS. The data set is classed as cell-based, Escherichia coli. The procedure: In the positive selection, plasmid pYC-J17 was used to express the mutRNACUA^Tyr gene and the chloramphenicol acetyl transferase (CAT) gene with a TAG stop codon at Asp112 (4). Supercoiled DNA encoding the TyrRS library was transformed into E. coli DH10B competent cells containing pYC-J17. Cells were then plated on minimal media plates containing 1% glycerol and 0.3 mM leucine (GMML) with 17 μg/mL tetracycline, 25 μg/mL kanamycin, 60 μg/mL of chloramphenicol, and 1 mM p-acetyl-L-phenylalanine. After incubation at 37° C. for 40 hours, colonies were pooled, and plasmids were isolated. Plasmids encoding mutant synthetases (pBK plasmids) were separated from pYC-J17 using gel electrophoresis and transformed into E. coli DH10B competent cells containing pLWJ17B3 for negative selection. […] Transformed cells were grown on LB (Luria-Bertani) plates containing 0.2% arabinose, 50 μg/ml kanamycin, and 35 μg/ml chloramphenicol. After 8 hours, cells were removed from the plate, and pBK plasmids were purified for further rounds of selection. In the second and third round of positive selection, the concentration of chloramphenicol was increased to 80 and 100 μg/mL, respectively. […] The polypeptide sequences of these mutant TyrRS converged on 3 independent clones LW1, LW5 and LW6, although the codon usage of each mutant TyrRS differs.
The Methanococcus jannaschii tyrosyl-tRNA synthetase (TyrRS) and a mutant tyrosine amber suppressor tRNA (mutRNACUA^Tyr) were used as the starting point for the generation of the orthogonal tRNA-synthetase pairs. […] To change the amino acid specificity of the TyrRS so that it charges p-acetyl-L-phenylalanine and not any of the common 20 amino acids, a library of M. jannaschii TyrRS mutants was generated and screened. The crystal structure of the homologous Bacillus stearothertnophilus TyrRS (31) was used to identify those residues that are within 6.5 Å of the para position of the aryl ring of bound tyrosine. Five corresponding residues (Tyr32, Glu107, Asp158, Ile159 and Leu162) in the active site of M. jannaschii TyrRS were randomly mutated by polymerase chain reaction (PCR) to generate a library 1.6×10^9 in size (4). This TyrRS mutant library was first passed through a positive selection in the presence of 1 mM p-acetyl-L-phenylalanine which is based on the suppression of an amber stop codon at nonessential residue (Asp 112) in chloramphenicol acetyl transferase (CAT) gene encoded on plasmid pYC-J17 (4) in E. coli. Cells surviving in chloramphenicol must encode a mutant synthetase that aminoacylates the mutRNACUA^Tyr with either a common amino acid(s) or p-acetyl-L-phenylalanine. […]

Data set [3] relates to cells harboring mutant TyrRS plasmids. Put plainly: chloramphenicol resistance of cells harboring mutant TyrRS plasmids selected for m-acetyl phenylalanine. The data set is classed as cell-based. The text has this: Preparation of Mutant TyrRS Library Plasmids. A library of plasmids encoding mutant M. jannaschii TryRSs directed at meta-substituted tyrosine derivatives was constructed, generally following the methods described in Example 1 of WO 2002/085923. Briefly, six residues (Tyr^32, Ala^67, His^70, Gln^155, Asp^158, Ala^167) in the active site of M. jannaschii TyrRS that are within 6.9 Å of the meta-position of the aryl ring of bound tyrosine in the crystal structure of Bacillus stearothermophilus TyrRS were mutated to all 20 amino acids at DNA level using the NNK codon scheme as described in Example 1 above. The constructed plasmid library pBK-lib contained around 1×10^9 independent clones.
Evolution of Orthogonal tRNA-synthetase Pairs for Incorporation of m-acetyl Phenylalanine. After 3 rounds of positive selection and 2 rounds of negative selection, five candidate clones (SEQ ID NO: 17-21 of WO 2002/085923) emerged whose survival in chloramphenicol was dependent on the addition of the unnatural amino acid. In the absence of m-acetyl phenylalanine, the IC50 of chloramphenicol resistance for cells harboring the one of the […] mutant TyrRS plasmids is 20 μg/ml. In the presence of m-acetyl phenylalanine, the IC50 of resistance to chloramphenicol for the same cells is 100 μg/ml. […]

The subject of data set [4] is E. coli DH10B cells. In words: growth rate of cells grown in the presence of the unnatural amino acid. The following applies: 1 mM; cells transformed with mutRNACUA^Tyr, LW1RS and Z domain gene (Lys7TAG).
Experimental: E. coli DH10B cells cotransformed with pLEIZ and pBK-LW1RS were grown in minimal media containing 1% glycerol and 0.3 mM leucine (GMML media) with 25 μg/mL kanamycin, 34 μg/mL of chloramphenicol, and 1.0 mM p-acetyl-(±)-phenylalanine. When cells reach an OD600 of 0.5, isopropyl-β-D-thiogalactopyranoside (IPTG) (1 mM) was added to induce polypeptide expression.
To test the ability of the evolved synthetase and the mutRNACUA^Tyr to selectively incorporate p-acetyl-L-phenylalanine into polypeptides, an amber stop codon was substituted at a permissive site (Lys7) in the gene for the Z domain of staphylococcal protein A (32) with a COOH-terminal His6 tag. […] Cells transformed with the mutRNACUA^Tyr, LW1RS and Z domain gene (Lys7TAG) were grown in the presence of 1 mM p-acetyl-(±)-phenylalanine.

Converted amounts (≈) assume the structure as drawn. Like-named read-outs stand apart in the source and are kept apart here.

Take `CC(=O)c1ccc(C[C@H](N)C(=O)O)cc1` [p-acetyl-L-phenylalanine]: in data set [1], the “fidelity for the incorporation” value is listed as more than 99.8%.

As for `O=C(N[C@H](CO)[C@H](O)c1ccc([N+](=O)[O-])cc1)C(Cl)Cl` [chloramphenicol], the IC50 in data set [2] (in the absence of p-acetyl-L-phenylalanine) was 9 µg/mL (≈ 27.9 µM); in data set [2] (in the presence of p-acetyl-L-phenylalanine), 120 µg/mL; in data set [3] (in the presence of m-acetyl phenylalanine, read-out: IC50 of resistance to chloramphenicol) it was 100 µg/mL; in data set [3] (read-out: IC50 of chloramphenicol resistance) it was 20 µg/mL (≈ 61.9 µM). Further, the “chloramphenicol concentration on which cells survived” value in data set [2] (GMML plates, in the absence of p-acetyl-L-phenylalanine) worked out at 9 µg/mL. Further, the “chloramphenicol concentration in which cells survived” value in data set [2] (GMML plates, in the presence of p-acetyl-L-phenylalanine) came to 120 µg/mL.

On to `CC(=O)c1ccc(CC(N)C(=O)O)cc1` (racemic) [p-acetyl-(±)-phenylalanine], for which, in data set [4], the “effect on growth rate of cells” value was “did not affect the growth rate of cells”.
